Experimental data: US20130109682A1, “CYCLIC ETHER COMPOUNDS USEFUL AS KINASE INHIBITORS” (NOVARTIS AG, priority 2010, published 2013)
Read-outs that look alike come from different tables or passages of the source.

Assays:
Format in all cases: biochemical
FLT3D835Y kinase = target: T1, FLT3D835Y kinase (Homo sapiens, UniProt P36888, D835Y); assay: FLT3D835Y kinase inhibition assay (LanthaScreen TR-FRET); conditions: read-out: FLT3 IC50
T1 sequence (P36888 27-993 D835Y): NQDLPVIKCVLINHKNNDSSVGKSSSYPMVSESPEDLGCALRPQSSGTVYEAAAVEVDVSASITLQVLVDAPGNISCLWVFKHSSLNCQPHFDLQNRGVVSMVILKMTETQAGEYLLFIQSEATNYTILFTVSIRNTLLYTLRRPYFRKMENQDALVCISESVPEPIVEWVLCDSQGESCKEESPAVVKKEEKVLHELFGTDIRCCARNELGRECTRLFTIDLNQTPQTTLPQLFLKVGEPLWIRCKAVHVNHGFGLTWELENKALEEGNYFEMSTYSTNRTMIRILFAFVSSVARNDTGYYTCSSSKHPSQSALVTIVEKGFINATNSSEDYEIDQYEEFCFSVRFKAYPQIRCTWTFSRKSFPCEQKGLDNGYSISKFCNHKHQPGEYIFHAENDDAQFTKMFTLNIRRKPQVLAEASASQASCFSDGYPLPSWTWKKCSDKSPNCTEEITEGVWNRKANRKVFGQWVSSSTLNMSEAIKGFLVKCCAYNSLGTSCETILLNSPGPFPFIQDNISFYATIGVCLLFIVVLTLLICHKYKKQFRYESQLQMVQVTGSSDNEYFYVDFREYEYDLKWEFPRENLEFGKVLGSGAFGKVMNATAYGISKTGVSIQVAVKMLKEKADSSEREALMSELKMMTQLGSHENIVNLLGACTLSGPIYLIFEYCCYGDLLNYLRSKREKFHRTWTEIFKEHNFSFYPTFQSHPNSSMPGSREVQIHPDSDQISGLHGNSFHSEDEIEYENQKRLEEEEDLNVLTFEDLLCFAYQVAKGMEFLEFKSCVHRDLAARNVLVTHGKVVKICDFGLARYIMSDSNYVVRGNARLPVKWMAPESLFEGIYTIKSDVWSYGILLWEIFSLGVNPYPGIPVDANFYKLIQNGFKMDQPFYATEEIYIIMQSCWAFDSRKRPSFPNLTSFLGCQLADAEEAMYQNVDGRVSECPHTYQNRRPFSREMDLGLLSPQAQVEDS
Procedure: FLT3D835Y Kinase Inhibition Assay
(§1) LanthaScreen™ is the detection of Time-Resolved Fluorescence Resonance Energy Transfer (TR-FRET) using lanthanide chelates to measure interactions between various binding partners. The application of TR-FRET to assay kinase activity was first described by Mathis (1995). A TR-FRET assay was used to measure FLT3D835Y kinase inhibitory activity. The assay panel was run on a Biomek FX liquid handling workstations. To the assay plates containing […] compound or control solutions, 4.5 μL of buffer A (50 mM TRIS-HCl pH 7.4, 2 mM DTT, 0.02% Tween 20, 0.02 mM Na3VO4, H2O nanpure) including a generic concentration of ATP (2 μM f.c.) was added per well, followed by […] of buffer B (4 uM ATP in Buffer A) including a generic concentration of polyEAY (50 nM f.c.), FLT3D835Y kinase, and divalent cations. Final concentration of kinase and cations were: [FLT3D835Y kinase]=5.7 nM, [Mg]=3 mM, [Mn]=3 mM. After 1 hour of incubation the kinase reactions were stopped by the addition of 4.5 μL of stop solution D (50 mM EDTA, 20 mM TRIS-HCl pH 7.4, 0.04% NP-40) immediately followed by 4.5 μL of buffer A (50 mM TRIS-HCl pH 7.4, 2 mM DTT, 0.02% Tween 20, 0.02 mM Na3VO4, H2O nanpure) including the Tb-labeled P-20 antibody to give a total detection volume of […]. After an incubation time of 45 min in the dark, the plates were transferred into the Pherastar fluorescence reader for counting. The effect of compound on the enzymatic activity was obtained from the linear progress curves and determined from one reading (end point measurement).

PKCα = PKCα (Homo sapiens, UniProt P17252); assay: PKCα kinase Caliper assay; conditions: read-out: PKC IC50
Procedure: PKCα and cABLT315 Kinase Caliper Assays
Assays were performed in 384 well microtiter plates. Each assay plate contained 8-point serial dilutions for test compounds, as well as two 16-point serial dilutions of staurosporine as reference compound, plus 16 high- and 16 low controls. Liquid handling and incubation steps were done on a Thermo CatX workstation equipped with a Innovadyne Nanodrop Express. Between pipetting steps, tips were cleaned in wash cycles using wash buffer. Plates with terminated kinase reactions were transferred to the Caliper LC3000 workstations for reading. Phosphorylated and unphosphorylated peptides were separated using the Caliper microfluidic mobilitishift technology and Kinase activities were calculated from the amounts of formed phospho-peptide.
1. 0.05 μA Compound (start with 1.8 mM in 90% DMSO/10% H2O)
2. +4.5 μl 2× peptide/ATP solution
3. +4.5 μl 2× enzyme solution
4. Incubate for 60 min at 30° C.
4. +16 μl stop/run buffer
Independent of the kinase, all reactions were done performed in 50 mM HEPES, pH 7.5, 1 mM DTT, 0.02% Tween20, 0.02% BSA, and 0.6% DMSO.

PDGFRaV561D kinase = PDGFRaV561D kinase (Homo sapiens, UniProt P16234, V561D); assay: PDGFRaV561D kinase inhibition assay (LanthaScreen TR-FRET); conditions: read-out: PDGFRa IC50
Sequence of PDGFRaV561D kinase (P16234 24-1089 V561D): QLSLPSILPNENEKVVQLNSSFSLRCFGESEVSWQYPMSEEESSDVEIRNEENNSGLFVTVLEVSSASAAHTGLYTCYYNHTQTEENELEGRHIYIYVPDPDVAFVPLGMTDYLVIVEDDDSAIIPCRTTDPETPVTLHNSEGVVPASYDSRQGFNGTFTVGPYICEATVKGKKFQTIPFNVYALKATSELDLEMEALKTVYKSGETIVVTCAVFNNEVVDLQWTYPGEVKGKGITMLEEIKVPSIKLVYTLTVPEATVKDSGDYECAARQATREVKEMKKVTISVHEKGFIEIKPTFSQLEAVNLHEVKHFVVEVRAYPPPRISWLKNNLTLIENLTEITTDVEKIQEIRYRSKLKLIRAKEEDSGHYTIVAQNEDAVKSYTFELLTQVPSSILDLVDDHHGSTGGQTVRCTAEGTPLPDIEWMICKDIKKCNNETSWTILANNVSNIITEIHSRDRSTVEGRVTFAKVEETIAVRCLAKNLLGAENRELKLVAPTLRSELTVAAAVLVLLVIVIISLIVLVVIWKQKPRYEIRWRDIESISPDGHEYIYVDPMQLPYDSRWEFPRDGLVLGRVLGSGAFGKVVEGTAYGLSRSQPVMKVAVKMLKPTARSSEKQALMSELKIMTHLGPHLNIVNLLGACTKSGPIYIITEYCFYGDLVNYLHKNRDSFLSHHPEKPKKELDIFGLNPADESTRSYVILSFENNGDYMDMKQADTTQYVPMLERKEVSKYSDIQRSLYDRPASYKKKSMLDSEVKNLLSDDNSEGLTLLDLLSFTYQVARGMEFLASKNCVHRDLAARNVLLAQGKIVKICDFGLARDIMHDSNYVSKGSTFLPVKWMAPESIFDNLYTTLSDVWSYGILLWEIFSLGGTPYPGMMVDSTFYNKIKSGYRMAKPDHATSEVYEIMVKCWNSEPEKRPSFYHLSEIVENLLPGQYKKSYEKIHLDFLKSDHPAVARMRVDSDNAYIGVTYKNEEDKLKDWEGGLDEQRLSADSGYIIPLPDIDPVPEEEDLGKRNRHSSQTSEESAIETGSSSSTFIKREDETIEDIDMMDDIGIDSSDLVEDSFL
Procedure: PDGFRaV561D Kinase Inhibition Assay
as §1, with “PDGFRaV561D” for “FLT3D835Y”, “[PDGFRaV561D kinase]=4.4” for “[FLT3D835Y kinase]=5.7”, “[Mn]=10” for “[Mg]=3 mM, [Mn]=3”

| Structure (SMILES) | IC50 (FLT3D835Y kinase) [nM] | IC50 (PKCα; PKCα Caliper assay) [nM] | IC50 (PDGFRaV561D kinase) [nM] | IC50 (PKCα) [nM] |
| --- | --- | --- | --- | --- |
| CC[C@]1(O)[C@H](C)O[C@H](c2ccncc2NC(=O)c2nc(-c3ccccc3)cnc2N)C[C@@H]1N [Example 189, 3-amino-N-(4-((2S,4S,5R,6S)-4-amino-5-ethyl-5-hydroxy-6-methyltetrahydro-2H-pyran-2-yl)pyridin-3-yl)-6-phenylpyrazine-2-carboxamide] | 170 | 710 | 1700 | – |
| COc1cc(F)c(-c2nc(C(=O)Nc3cnccc3[C@H]3C[C@@H](N)[C@](C)(O)[C@@H](C)O3)ccc2F)c(F)c1 [Example 242, N-(4-((2R,4R,5S,6R)-4-amino-5-hydroxy-5,6-dimethyltetrahydro-2H-pyran-2-yl)pyridin-3-yl)-6-(2,6-difluoro-4-methoxyphenyl)-5-fluoropicolinamide] | 1200 | > 10000 | 400 | – |
| C[C@H]1O[C@@H](c2ccncc2NC(=O)c2nc(-c3ccccc3)cnc2N)C[C@@H](O)[C@]1(C)O [Example 84, 3-amino-N-(4-((2R,4R,5S,6R)-4,5-dihydroxy-5,6-dimethyltetrahydro-2H-pyran-2-yl)pyridin-3-yl)-6-phenylpyrazine-2-carboxamide] | – | – | – | 490 |
| C[C@]1(O)[C@H](N)C[C@H](c2ccncc2NC(=O)c2nc(-c3ccccc3)cnc2N)O[C@@H]1C1CC1 [Example 344, 3-amino-N-(4-((2R,4R,5S,6R)-4-amino-6-cyclopropyl-5-hydroxy-5-methyltetrahydro-2H-pyran-2-yl)pyridin-3-yl)-6-phenylpyrazine-2-carboxamide] | 10 | 110 | 110 | – |
| C[C@@]1(O)[C@@H](N)C[C@@H](c2ccncc2NC(=O)c2nc(-c3ccccc3)cnc2N)OC12CC2 [Example 350, 3-amino-N-(4-((5S,7S,8R)-7-amino-8-hydroxy-8-methyl-4-oxaspiro[2.5]octan-5-yl)pyridin-3-yl)-6-phenylpyrazine-2-carboxamide] | 44 | 21 | 420 | – |
| C[C@H]1O[C@@H](c2ccncc2NC(=O)c2nc(-c3ccccc3)ncc2N)C[C@@H](O)[C@]1(C)O [Example 32, 5-amino-N-(4-((2R,4R,5S,6R)-4,5-dihydroxy-5,6-dimethyltetrahydro-2H-pyran-2-yl)pyridin-3-yl)-2-phenylpyrimidine-4-carboxamide] | – | – | – | > 10000 |
| CC[C@H]1O[C@@H](c2ccncc2NC(=O)c2nc(-c3ccccc3)ncc2N)C[C@@H](O)[C@@H]1O [Example 39, 5-amino-N-(4-((2R,4R,5S,6R)-6-ethyl-4,5-dihydroxytetrahydro-2H-pyran-2-yl)pyridin-3-yl)-2-phenylpyrimidine-4-carboxamide] | – | – | – | > 10000 |
| C=C1[C@@H](O)C[C@@H](c2ccncc2NC(=O)c2nc(-c3ccccc3)cnc2N)OC12CC2 [Example 5, 3-amino-N-(4-((5S,7S)-7-hydroxy-8-methylene-4-oxaspiro[2.5]octan-5-yl)pyridin-3-yl)-6-phenylpyrazine-2-carboxamide] | – | – | – | 60 |
| C[C@@H]1O[C@H](c2ccncc2NC(=O)c2nc(-c3ccccc3)cnc2N)[C@@H](F)[C@H](O)[C@@]1(C)O [Example 63, 3-amino-N-(4-((2R,3S,4R,5R,6S)-3-fluoro-4,5-dihydroxy-5,6-dimethyltetrahydro-2H-pyran-2-yl)pyridin-3-yl)-6-phenylpyrazine-2-carboxamide] | – | – | – | 41 |
| C[C@@H]1O[C@H](c2ccncc2NC(=O)c2nc(-c3ccccc3)cnc2N)C[C@H](O)[C@@]1(C)O [Example 86, 3-amino-N-(4-((2S,4S,5R,6S)-4,5-dihydroxy-5,6-dimethyltetrahydro-2H-pyran-2-yl)pyridin-3-yl)-6-phenylpyrazine-2-carboxamide] | – | – | – | 790 |
| C[C@]1(O)[C@@H](N)C[C@H](c2ccncc2NC(=O)c2nc(-c3ccccc3)cnc2N)OC12CC2 [Example 351, 3-amino-N-(4-((5R,7S,8S)-7-amino-8-hydroxy-8-methyl-4-oxaspiro[2.5]octan-5-yl)pyridin-3-yl)-6-phenylpyrazine-2-carboxamide] | 5 | – | 18 | – |
| C[C@H]1O[C@@H](c2ccncc2NC(=O)c2nc(-c3ccccc3)cnc2N)[C@H](F)[C@@H](O)[C@]1(C)O [Example 58, 3-amino-N-(4-((2S,3R,4S,5S,6R)-3-fluoro-4,5-dihydroxy-5,6-dimethyltetrahydro-2H-pyran-2-yl)pyridin-3-yl)-6-phenylpyrazine-2-carboxamide] | – | – | – | 820 |
| CC(C)(C)[C@H]1O[C@@H](c2ccncc2NC(=O)c2nc(-c3ccccc3)cnc2N)C[C@H](N)[C@@H]1O [Example 286, 3-amino-N-(4-((2R,4S,5S,6R)-4-amino-6-tert-butyl-5-hydroxytetrahydro-2H-pyran-2-yl)pyridin-3-yl)-6-phenylpyrazine-2-carboxamide] | – | – | 280 | – |
| Nc1ncc(-c2ccccc2)nc1C(=O)Nc1cnccc1[C@H]1C[C@@H](O)[C@H](O)[C@@H](CCl)O1 [Example 36, 3-amino-N-(4-((2R,4R,5S,6S)-6-(chloromethyl)-4,5-dihydroxytetrahydro-2H-pyran-2-yl)pyridin-3-yl)-6-phenylpyrazine-2-carboxamide] | – | – | – | 100 |
